In US7741436B2, “Biologically active peptides and their use for repairing injured nerves” (priority 2001, dated 2010):

What was measured:
[1] = test system: human CNS neurons; assay: Attachment and neurite outgrowth of human embryonic CNS neurons on synthetic peptides coupled to glass; type: cell-based; settings: 0.1-10 μg/ml, peptide covalently cross-linked to glass, 24 hrs
Method: The cells were dissociated by trituration in a sterile culture medium (RPMI 1640) containing penicillin (100 U/ml), streptomycin (100 μg/ml) and 200 μM L-glutamine. The dissociated cells were plated on glass coverslips pre-coated (Liesi et al., 1989) with mouse laminin-1 (Boehringer-Mannheim, Germany) or with the peptides KDI-gc and RDIAEIIKDI-gc (SEQ ID NO: 1), as described elsewhere (Matsuzawa et al., 1996b). The peptides were from the Multiple Peptide Systems (La Jolla, Calif.). The cultures were maintained for 24 hrs, fixed in 2% paraformaldehyde, and processed for immunocytochemistry.
Immunocytochemistry for neuron specific tubulin isoform TUJ1 was performed as described elsewhere (Liesi et al., 2001). In short, the cells were permeabilized in methanol for 5 min at −20° C., washed in PBS and incubated with monoclonal TUJ1-antibodies for 1 hr at room temperature. The antibody was of high specificity and was used at 1:500 dilution. After immunocytochemistry, the coverslips were mounted in PBS:glycerol (1:1) and viewed with Olympus Provis fluorescence microscope with appropriate filter combinations.

[2] = test system: human embryonic spinal cord neurons; assay: Survival and neurite outgrowth of human embryonic spinal cord neurons on injured glial cells of the human spinal cord; type: cell-based; settings: for survival (numbers) of spinal cord neurons on lesioned glial monolayers / numbers of spinal cord neurons extending long neurites (>100 μm): 72 hrs; for numbers of spinal cord neurons extending long neurites (>100 μm): lesioned glial monolayers
From the text: The CNS tissues were first placed in cold saline. The spinal cord tissues were identified under a stereomicroscope, and carefully freed of meninges. To obtain monolayer cultures of human spinal cord glial cells, the cells were dissociated by mechanical trituration using a Pasteur-pipette, and placed in Petri dishes (Corning, N.Y., USA) containing 10% fetal calf serum (Hyclone, Logan, UH) in DMEM-F12 (Gibco, U.K.) supplemented with penicillin and streptomycin as described (Liesi et al. 2001).
Freshly isolated tissue from the human embryonic spinal cord (8-10 weeks of age) was mechanically dissociated and cells were plated at 50,000 on a 22 mm glass coverslip confluent with human embryonic spinal cord glia. The glial monolayers were injured using a 18 G needle prior to plating of the neurons. The cells were cultured in normal adult human serum for 72 hrs. The numbers of spinal cord neurons on the glial monolayers in the presence or absence of KDI (0.0355 μg/ml-1.0 μg/ml) was estimated on TUJ1-labelled cultures. The statistical analysis was performed using one-way-variance analysis (ANOVA), and the Student-Newman-Keuls multiple comparisons test.
Confluent cultures of the spinal cord glial cells were trypsinized using Trypsin-EDTA, and cells replated at a density of 5×10^4 on a 22 mm glass coverslip. The cells were cultivated until they formed confluent monolayers. At this point, their culture medium was changed into 10% normal adult human serum in DMEM-F12, and glial monolayers were injured using 18 G-needle. After injury, the KDI peptide (Multiple Peptide Systems, La Jolla, Calif., USA) was added into the culture medium after which a suspension of freshly dissociated cells from spinal cord or neocortex was added at 2×10^4 on one coverslip. After 24-48 hrs, the cultures were fixed in 2% paraformaldehyde in PBS, pH 7.4 for 15 min and immunostained for TUJ1 as described previously (Liesi et al., 2001).
Viability and neurite outgrowth of human CNS-neurons on the spinal cord glial cells were evaluated by counting 10 random fields of cells in 6 different cultures. A total of 265 cells were counted. The numbers of long neurites (>10 cell soma) were estimated similarly. One-way-variance analysis (ANOVA) was used to evaluate the results.

[3] = test system: spinal cord injuries of adult male rats; assay: Spinal cord injuries of adult male rats: complete lumbar spinal cord transection, mini pump administration; type: in vivo, Sprague-Dawley rats
Method: Complete transections of the lumbar spinal cord under deep pentobarbiturate anesthesia were made to 40 adult male Sprague-Dawley rats. Osmotic mini pumps were implanted subcutaneously to allow continuous flow of the KDI peptide (KDI-group) used at pre-tested concentrations (10-100 μg/ml) or a placebo (placebo-group). Morphine was given to both of the groups to alleviate the postoperative pain. The animals underwent weekly tests of their motor function during a period of three months. The motor score testing was carried out using a standard set of tests of motor evaluation (walking, tow-spread, placing and withdrawal). The mini pumps initially provided the drugs for 30 days, and when feasible, additional experiments were carried out with prolonged (up to 3 months) application. After 3 months, the animals in each group were euthanized and spinal cords were either deep frozen for immunocytochemistry, biochemistry and RNA-work, or fixed in 4% paraformaldehyde for in situ hybridization and histological analysis of recovery. […]
Preliminary motor scores were obtained from animals treated with KDI, and from control animals. […] The scores for each animal were calculated by adding up the walking scores obtained within a 12 week follow-up-time after the operation. […] The scores of six animals in placebo-group and six-animals, in the KDI-group were analysed and statistically compared. […]

Substance: KDI
- attachment and neurite outgrowth of human CNS neurons [1]: supported attachment and neurite outgrowth
- survival (numbers) of spinal cord neurons on lesioned glial monolayers ([2]; 0.0355 μg/ml): significantly (p<0.001) enhanced survival
- neurite extension of TUJ1-immunoreactive spinal cord neuron on injured glial monolayers ([2]; 0.1 μg/ml in culture medium, 48 hrs): extends a long neurite
- survival (numbers) of spinal cord neurons on lesioned glial monolayers ([2]; 0.1 μg/ml): significantly (p<0.001) enhanced survival
- numbers of spinal cord neurons extending long neurites (>100 μm) ([2]; 0.1 μg/ml, p<0.001): significantly increased the numbers of long neurites
- survival (numbers) of spinal cord neurons on lesioned glial monolayers ([2]; 0.5 μg/ml): did not promote survival of the spinal cord neurons any better than the lesion by itself
- survival (numbers) of spinal cord neurons on lesioned glial monolayers ([2]; 1.0 μg/ml): did not promote survival of the spinal cord neurons any better than the lesion by itself
- numbers of spinal cord neurons extending long neurites (>100 μm) ([2]; 1.0 μg/ml, vs lesion-control): significantly increased the numbers of long neurites
- connective tissue scar at the dorsal pole of the spinal cord vs placebo ([3]; adult rats three months after injury, stereomicroscopic images): considerably smaller
- mean motor score (sum of walking scores) ([3]; rats with total spinal cord transection, 12 week follow-up, six animals, ±SEM, placebo 11±2.4, normal animal 120, P 0.0022, preliminary): 78±5.8
